Measured values published in ChEMBL document CHEMBL5325482, “Discovery of [11C]MK-8056: A Selective PET Imaging Agent for the Study of mGluR2 Negative Allosteric Modulators” (ACS Med Chem Lett, 2023).

How the values were obtained:
[1] = physchem; conditions: PBS, pH 7
[2] = tested on: P-gp; test: in vitro; conditions: pig, LLC-PK1
[3] = tested on: P-gp; test: in vitro; conditions: pig, LLC-PK1; remark: listed apart in the source

NC(=O)c1cc(-c2ccc(F)cc2)c2ccc(CN3C(=O)CCC3=O)cc2n1
logD [1]: 2.24

NC(=O)c1cc(-c2ccc(F)cc2)c2ccc(CCc3cncnc3)cc2n1
Papp [2]: 30 ×10⁻⁶ cm/s
Papp [3]: 28 ×10⁻⁶ cm/s
logD [1]: 2.31

NC(=O)c1cc(-c2ccc(F)cc2)c2ccc(CCc3cccnc3)cc2n1
Papp [2]: 21 ×10⁻⁶ cm/s
Papp [3]: 22 ×10⁻⁶ cm/s
logD [1]: 2.85

NC(=O)c1cc(-c2ccc(F)cc2)c2ccc(CCc3ccncc3)cc2n1
Papp [2]: 21 ×10⁻⁶ cm/s
Papp [3]: 24 ×10⁻⁶ cm/s
logD [1]: 2.88

NC(=O)c1cc(-c2ccc(F)cc2)c2ccc(Cc3ccncc3)cc2n1
logD [1]: 2.7
